# Results: US20140038950A1, “PLANT TREATMENT” (priority 2012, published 2014)
# How the values were obtained:
# common dogwood diseases = test: Drench experiments on flowering dogwoods; assay type: in vivo; details: soil drench; compared with fluoxastrobin (personal experience)
# Text: Evidence of how far you have to stray from my preferred formulation and application plan before the invention stops being useful (in other words, what are the boundaries of this invention). Not all strobilurins have xylem mobility only azoxystrobin and fluoxastrobin show this ability.
# [1] = Direct trunk injection, phytotoxicity; assay type: in vivo; details: movement into xylem vessels
# Text: For direct trunk injections, the azoxystrobin fungicide is compatible with the physiology of the plants. […] Other formulations such as fluoxastrobin are not advised for direct trunk injections.
smiles,measurement,setting,value
CO/C=C(/C(=O)OC)c1ccccc1Oc1cc(Oc2ccccc2C#N)ncn1 [azoxystrobin],control of common dogwood diseases,common dogwood diseases,excellent season long control
same,phytotoxicity,[1],without phytotoxicity
